Measured values taken from ChEMBL document CHEMBL5042477, “Potent Cyclic Peptide Inhibitors of FXIIa Discovered by mRNA Display with Genetic Code Reprogramming” (J Med Chem, 2021).
Where a SMILES comes first, the peptide text is derived from it. Bridges are numbered along the chain shown (N, C = ends). [ ]: non-standard residue; d: D form. Phe(3-CF3) = N[C@@H](Cc1cccc(C(F)(F)F)c1)C(=O)O; Phe(3-OMe) = COc1cccc(C[C@H](N)C(=O)O)c1; Phe(2-CN) = N#Cc1ccccc1C[C@H](N)C(=O)O; Phe(2-OMe) = COc1ccccc1C[C@H](N)C(=O)O; Phe(4-F) = N[C@@H](Cc1ccc(F)cc1)C(=O)O; hTyr = N[C@@H](CCc1ccc(O)cc1)C(=O)O; hPhe = N[C@@H](CCc1ccccc1)C(=O)O; 4Pal = N[C@@H](Cc1ccncc1)C(=O)O; Cha = N[C@@H](CC1CCCCC1)C(=O)O; Orn = NCCC[C@H](N)C(=O)O

Biological target: T1, Coagulation factor XII (Homo sapiens, UniProt P00748)
T1 sequence (P00748 whole entry): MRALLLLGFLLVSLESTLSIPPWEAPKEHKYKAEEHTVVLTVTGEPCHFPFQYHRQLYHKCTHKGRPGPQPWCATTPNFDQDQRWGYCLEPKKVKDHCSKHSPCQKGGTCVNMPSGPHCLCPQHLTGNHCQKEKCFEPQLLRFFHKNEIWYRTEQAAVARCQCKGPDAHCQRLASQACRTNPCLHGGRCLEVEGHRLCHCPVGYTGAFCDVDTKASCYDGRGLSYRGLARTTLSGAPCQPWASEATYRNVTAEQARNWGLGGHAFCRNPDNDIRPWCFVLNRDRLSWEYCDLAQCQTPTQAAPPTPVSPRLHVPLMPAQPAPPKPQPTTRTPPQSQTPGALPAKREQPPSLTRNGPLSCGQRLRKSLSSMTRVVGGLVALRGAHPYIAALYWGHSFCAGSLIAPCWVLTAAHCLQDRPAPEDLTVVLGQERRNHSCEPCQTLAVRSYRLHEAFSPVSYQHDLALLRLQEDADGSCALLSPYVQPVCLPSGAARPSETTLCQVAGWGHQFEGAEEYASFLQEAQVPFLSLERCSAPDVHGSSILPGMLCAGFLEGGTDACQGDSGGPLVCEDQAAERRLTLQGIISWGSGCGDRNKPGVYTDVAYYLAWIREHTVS
Assay: Inhibition of human factor 12a using H-D-Pro-Phe-Arg-p-nitroanilide as chromogenic substrate assessed as liberation of p-nitroaniline measured every 5 mins for 60 min by multimode plate reader analysis

Compound	IC50
CC(C)C[C@@H]1NC(=O)[C@H](Cc2ccc(O)cc2)NC(=O)CSC[C@@H](C(N)=O)NC(=O)CNC(=O)CNC(=O)[C@H](CCCNC(=N)N)NC(=O)[C@H](CC(=O)O)NC(=O)[C@H](CCCCN)NC(=O)[C@@H]2CCCN2C(=O)[C@H](CCCNC(=N)N)NC(=O)[C@H](CCc2ccccc2)NC(=O)[C@H](CCCNC(=N)N)NC1=O ({CH2CO}-YLR[hPhe]RPKDRGGC-NH2; thioether N-12)	0.74 µM
CC(C)C[C@@H]1NC(=O)[C@H](Cc2ccc(O)cc2)NC(=O)CSC[C@@H](C(N)=O)NC(=O)CNC(=O)CNC(=O)[C@H](CCCNC(=N)N)NC(=O)[C@H](CC(=O)O)NC(=O)[C@H](CCCCN)NC(=O)[C@@H]2CCCN2C(=O)[C@H](CCCNC(=N)N)NC(=O)[C@H](Cc2ccc(O)cc2)NC(=O)[C@H](CCCNC(=N)N)NC1=O ({CH2CO}-YLRYRPKDRGGC-NH2; thioether N-12)	0.26 µM
CC(C)C[C@@H]1NC(=O)[C@H](Cc2ccccc2)NC(=O)CSC[C@@H](C(N)=O)NC(=O)CNC(=O)CNC(=O)[C@H](CCCNC(=N)N)NC(=O)[C@H](CC(=O)O)NC(=O)[C@H](CCCCN)NC(=O)[C@@H]2CCCN2C(=O)[C@H](CCCNC(=N)N)NC(=O)[C@H](Cc2ccccc2)NC(=O)[C@H](CCCNC(=N)N)NC1=O ({CH2CO}-FLRFRPKDRGGC-NH2; thioether N-12)	0.48 µM
CC(C)C[C@@H]1NC(=O)[C@H](Cc2ccc(O)cc2)NC(=O)CSC[C@@H](C(N)=O)NC(=O)CNC(=O)CNC(=O)[C@H](CCCNC(=N)N)NC(=O)[C@H](CC(=O)O)NC(=O)[C@H](CCCCN)NC(=O)[C@@H]2CCCN2C(=O)[C@H](CCCNC(=N)N)NC(=O)[C@H](Cc2ccccc2)NC(=O)[C@H](C)NC1=O ({CH2CO}-YLAFRPKDRGGC-NH2; thioether N-12)	110 µM
CC(C)C[C@@H]1NC(=O)[C@H](Cc2ccc(O)cc2)NC(=O)CSC[C@@H](C(N)=O)NC(=O)CNC(=O)CNC(=O)[C@H](CCCNC(=N)N)NC(=O)[C@H](CC(=O)O)NC(=O)[C@H](CCCCN)NC(=O)[C@@H]2CCCN2C(=O)[C@H](CCCNC(=N)N)NC(=O)[C@H](Cc2ccccc2)NC(=O)[C@H](CCCN)NC1=O ({CH2CO}-YL[Orn]FRPKDRGGC-NH2; thioether N-12)	71 µM
CC(C)C[C@@H]1NC(=O)[C@H](Cc2ccc(O)cc2)NC(=O)CSC[C@@H](C(N)=O)NC(=O)CNC(=O)CNC(=O)[C@H](CCCNC(=N)N)NC(=O)[C@H](CC(=O)O)NC(=O)[C@H](C)NC(=O)[C@@H]2CCCN2C(=O)[C@H](CCCNC(=N)N)NC(=O)[C@H](Cc2ccccc2)NC(=O)[C@H](CCCNC(=N)N)NC1=O ({CH2CO}-YLRFRPADRGGC-NH2; thioether N-12)	0.4 µM
CC(C)C[C@@H]1NC(=O)[C@H](C)NC(=O)CSC[C@@H](C(N)=O)NC(=O)CNC(=O)CNC(=O)[C@H](CCCNC(=N)N)NC(=O)[C@H](CC(=O)O)NC(=O)[C@H](CCCCN)NC(=O)[C@@H]2CCCN2C(=O)[C@H](CCCNC(=N)N)NC(=O)[C@H](Cc2ccccc2)NC(=O)[C@H](CCCNC(=N)N)NC1=O ({CH2CO}-ALRFRPKDRGGC-NH2; thioether N-12)	500 µM
CC(C)C[C@@H]1NC(=O)[C@H](Cc2ccc(O)cc2)NC(=O)CSC[C@@H](C(N)=O)NC(=O)CNC(=O)[C@H](C)NC(=O)[C@H](CCC(N)=O)NC(=O)[C@H](CC(N)=O)NC(=O)[C@H]([C@@H](C)O)NC(=O)[C@@H]2CCCN2C(=O)[C@H](CCCCN)NC(=O)[C@H](CC(C)C)NC(=O)[C@H](CCCNC(=N)N)NC1=O ({CH2CO}-YLRLKPTNQAGC-NH2; thioether N-12)	21 µM
CC(C)C[C@@H]1NC(=O)[C@H](Cc2ccc(O)cc2)NC(=O)CSC[C@@H](C(N)=O)NC(=O)CNC(=O)CNC(=O)[C@H](CCCNC(=N)N)NC(=O)[C@H](CC(=O)O)NC(=O)[C@H](CCCCN)NC(=O)[C@@H]2CCCN2C(=O)[C@H](CCCNC(=N)N)NC(=O)[C@H](Cc2ccc(F)cc2)NC(=O)[C@H](CCCNC(=N)N)NC1=O ({CH2CO}-YLR[Phe(4-F)]RPKDRGGC-NH2; thioether N-12)	0.046 µM
COc1ccc(C[C@@H]2NC(=O)[C@H](CCCNC(=N)N)NC(=O)[C@H](CC(C)C)NC(=O)[C@H](Cc3ccc(O)cc3)NC(=O)CSC[C@@H](C(N)=O)NC(=O)CNC(=O)CNC(=O)[C@H](CCCNC(=N)N)NC(=O)[C@H](CC(=O)O)NC(=O)[C@H](CCCCN)NC(=O)[C@@H]3CCCN3C(=O)[C@H](CCCNC(=N)N)NC2=O)cc1 ({CH2CO}-YLRY(Me)RPKDRGGC-NH2; thioether N-12)	0.56 µM
CC(C)C[C@@H]1NC(=O)[C@H](Cc2ccc(O)cc2)NC(=O)CSC[C@@H](C(N)=O)NC(=O)[C@H](CCCNC(=N)N)NC(=O)[C@H](Cc2ccccc2)NC(=O)[C@H](CCCNC(=N)N)NC1=O ({CH2CO}-YLRFRC-NH2; thioether N-6)	200 µM
COc1ccccc1C[C@@H]1NC(=O)[C@H](CCCNC(=N)N)NC(=O)[C@H](CC(C)C)NC(=O)[C@H](Cc2ccc(O)cc2)NC(=O)CSC[C@@H](C(N)=O)NC(=O)CNC(=O)CNC(=O)[C@H](CCCNC(=N)N)NC(=O)[C@H](CC(=O)O)NC(=O)[C@H](CCCCN)NC(=O)[C@@H]2CCCN2C(=O)[C@H](CCCNC(=N)N)NC1=O ({CH2CO}-YLR[Phe(2-OMe)]RPKDRGGC-NH2; thioether N-12)	0.06 µM

Next, values leading:

IC50	Compound
14 µM	CC(C)C[C@@H]1NC(=O)[C@H](Cc2ccccc2C#N)NC(=O)CSC[C@@H](C(N)=O)NC(=O)CNC(=O)CNC(=O)[C@H](CCCNC(=N)N)NC(=O)[C@H](CC(=O)O)NC(=O)[C@H](CCCCN)NC(=O)[C@@H]2CCCN2C(=O)[C@H](CCCNC(=N)N)NC(=O)[C@H](Cc2ccccc2)NC(=O)[C@H](CCCNC(=N)N)NC1=O ({CH2CO}-[Phe(2-CN)]LRFRPKDRGGC-NH2; thioether N-12)
0.12 µM	CC(C)C[C@@H]1NC(=O)[C@H](Cc2ccc(O)cc2)NC(=O)CSC[C@@H](C(N)=O)NC(=O)CNC(=O)CNC(=O)[C@H](CCCNC(=N)N)NC(=O)[C@H](CC(=O)O)NC(=O)[C@H](CCCCN)NC(=O)[C@@H]2CCCN2C(=O)[C@H](CCCNC(=N)N)NC(=O)[C@H](Cc2ccncc2)NC(=O)[C@H](CCCNC(=N)N)NC1=O ({CH2CO}-YLR[4Pal]RPKDRGGC-NH2; thioether N-12)
370 µM	CC(C)C[C@@H]1NC(=O)[C@H](CCc2ccc(O)cc2)NC(=O)CSC[C@@H](C(N)=O)NC(=O)CNC(=O)CNC(=O)[C@H](CCCNC(=N)N)NC(=O)[C@H](CC(=O)O)NC(=O)[C@H](CCCCN)NC(=O)[C@@H]2CCCN2C(=O)[C@H](CCCNC(=N)N)NC(=O)[C@H](Cc2ccccc2)NC(=O)[C@H](CCCNC(=N)N)NC1=O ({CH2CO}-[hTyr]LRFRPKDRGGC-NH2; thioether N-12)
84 µM	CC(C)C[C@@H]1NC(=O)[C@H](Cc2cccc(C(F)(F)F)c2)NC(=O)CSC[C@@H](C(N)=O)NC(=O)CNC(=O)CNC(=O)[C@H](CCCNC(=N)N)NC(=O)[C@H](CC(=O)O)NC(=O)[C@H](CCCCN)NC(=O)[C@@H]2CCCN2C(=O)[C@H](CCCNC(=N)N)NC(=O)[C@H](Cc2ccccc2)NC(=O)[C@H](CCCNC(=N)N)NC1=O ({CH2CO}-[Phe(3-CF3)]LRFRPKDRGGC-NH2; thioether N-12)
140 µM	CC(C)C[C@@H]1NC(=O)[C@H](CC2CCCCC2)NC(=O)CSC[C@@H](C(N)=O)NC(=O)CNC(=O)CNC(=O)[C@H](CCCNC(=N)N)NC(=O)[C@H](CC(=O)O)NC(=O)[C@H](CCCCN)NC(=O)[C@@H]2CCCN2C(=O)[C@H](CCCNC(=N)N)NC(=O)[C@H](Cc2ccccc2)NC(=O)[C@H](CCCNC(=N)N)NC1=O ({CH2CO}-[Cha]LRFRPKDRGGC-NH2; thioether N-12)
60 µM	CC(C)C[C@@H]1NC(=O)[C@H](CCCNC(=N)N)NC(=O)[C@H](CC(C)C)NC(=O)[C@H](Cc2ccc(O)cc2)NC(=O)CSC[C@@H](C(N)=O)NC(=O)CNC(=O)CNC(=O)[C@H](CCC(N)=O)NC(=O)[C@H](CC(N)=O)NC(=O)[C@H]([C@@H](C)O)NC(=O)[C@@H]2CCCN2C(=O)[C@H](C)NC1=O ({CH2CO}-YLRLAPTNQGGC-NH2; thioether N-12)
27 µM	CC(C)C[C@@H]1NC(=O)[C@H](Cc2ccc(O)cc2)NC(=O)CSC[C@@H](C(N)=O)NC(=O)CNC(=O)[C@H](C)NC(=O)[C@H](CCCNC(=N)N)NC(=O)[C@H](CC(=O)O)NC(=O)[C@H](CCCCN)NC(=O)[C@@H]2CCCN2C(=O)[C@H](CCCNC(=N)N)NC(=O)[C@H](Cc2ccccc2)NC(=O)[C@H](CCCNC(=N)N)NC1=O ({CH2CO}-YLRFRPKDRAGC-NH2; thioether N-12)
290 µM	CC(C)C[C@@H]1NC(=O)[C@H](C)NC(=O)CSC[C@@H](C(N)=O)NC(=O)CNC(=O)CNC(=O)[C@H](CCC(N)=O)NC(=O)[C@H](CC(N)=O)NC(=O)[C@H]([C@@H](C)O)NC(=O)[C@@H]2CCCN2C(=O)[C@H](CCCCN)NC(=O)[C@H](CC(C)C)NC(=O)[C@H](CCCNC(=N)N)NC1=O ({CH2CO}-ALRLKPTNQGGC-NH2; thioether N-12)
0.12 µM	COc1cccc(C[C@@H]2NC(=O)[C@H](CCCNC(=N)N)NC(=O)[C@H](CC(C)C)NC(=O)[C@H](Cc3ccc(O)cc3)NC(=O)CSC[C@@H](C(N)=O)NC(=O)CNC(=O)CNC(=O)[C@H](CCCNC(=N)N)NC(=O)[C@H](CC(=O)O)NC(=O)[C@H](CCCCN)NC(=O)[C@@H]3CCCN3C(=O)[C@H](CCCNC(=N)N)NC2=O)c1 ({CH2CO}-YLR[Phe(3-OMe)]RPKDRGGC-NH2; thioether N-12)
